Experiments:
[1] = system: endothelial/lung carcinoma hybrid (Ea-hy 926) cells; assay: Cell growth assay of Ea-hy 926 cells; assay type: cell-based, human; conditions: 1 μM; 5 days
Procedure: The assays have been performed essentially as described in key to FIG. 1. No growth factors were added to EA-hy 926 cells since they produce factors which mediates cell growth in autocrine fashion (Edgell et al., 1983, Albini et al., PNAS 1995, Albini et al., Nat Med 1996). […] The assays have been performed essentially as described in legend to FIG. 3. Average and variation range of two independent experiments each performed in duplicate are shown.

[2] = system: myelo-monocytic leukaemia (U937) cells; assay: Invasion assay of U937 cells in response to bFGF; assay type: cell-based, human; conditions: 1 or 10 μM
Procedure: Shown is the result of a representative invasion assay performed on the myelo-monocytic leukaemia cells U937. […] The invasion assays were performed in the Boyden chamber. Polycarbonate filters (5 μM pores; Nucleoprobe, Cabin John, Md.) were coated first with collagen IV and then with Matrigel (Collaborative Biomedical Products) as described previously (Barillari et al., 1999b). […] Human recombinant bFGF (50 ng/ml) was placed in the lower compartment as chemoattractant. […] Louis, Mo.). Ten random filter fields were counted by light microscopy as described previously (Barillari et al., 1999b). Assays were repeated two times.

[3] = system: primary macrovascular (umbilical vein) endothelial cells (HUVEC); assay: Proliferation assay of HUVEC, basal or bFGF-induced; assay type: cell-based, human; conditions: for basal or bFGF-induced proliferation (number of cells): 0.1, 1 or 10 μM, 5 days, bFGF 10 ng/ml
Procedure: Human endothelial cells from the umbilical vein (HUVEC, Blo-Whittaker, Verviers, Belgium) were plated in triplicate (1.5×10^4 cells/well) in plates of 12 wells previously covered with gelatine. The next day the cells were incubated for 4 hours in a medium without serum and cultivated in RPMI 1640 medium (Life Technologies, Eragny, France) with the addition of 10% of foetal bovine serum (FBS) together with bFGF in PBS buffer (10 ng/ml) or PBS buffer alone.
(§1) The concentrations of HIV-PI used were the same as those present in plasma of treated patients (Deeks et al., 1997).

[4] = system: smooth muscle cells; assay: Invasion assay of smooth muscle cells in response to bFGF; assay type: cell-based, human
Source text: Assays have been essentially performed as described in key to FIGS. 1 and 3. […] Data of duplicate experiments (mean) are shown.

[5] = system: primary macrovascular (umbilical vein) endothelial cells (HUVEC); assay: Boyden chamber invasion assay of HUVEC in response to bFGF; assay type: cell-based, human; conditions: 0.1, 1 or 10 μM; bFGF 50 ng/ml; 6 hours
Procedure: Both assays were performed on endothelial cells.
Both assays were performed by the Boyden chamber separated in two compartments by polycarbonate filters with 12 μm pores (Nucleoprobe, Cabin John, Md.), coated with collagen IV (Collaborative Biomedical Products) for migration, or with collagen IV and Matrigel together for invasion, as described previously (Barillari et al., 1999b). […] After 5 hours (migration) or 6 hours (Invasion) of incubation, the non-migrated cells present on the top surface of the filters were mechanically removed, while the migrated cells on the bottom surface were fixed in methanol and stained with toluidine blue (Sigma Chemical Co., St. Louis, Mo.). The cells present in 5-10 microscopic fields of the filters, chosen at random, were counted as described previously (Barillari et al., 1999b).
as §1

[6] = system: EA-hy 926 cells; assay: Tumour angiogenic lesions induced by Ea-hy 926 cells in nude mice, no drug pre-treatment; assay type: in vivo; conditions: treatment started on the day of cell inoculation, 5 days
Procedure: Mice were inoculated subcutaneously into the lower back with Ea-hy 926 cells (3×10^6 cells/animal in 0.2 ml of 10% FBS RPMI 1640) or with the resuspension medium, all mixed with 0.2 ml of growth factor-depleted matrigel (BD Biosciences, Bedford, Mass.) prior to inoculation as described above. […] Treatment was then continued for 5 days, until sacrifice. The size of the lesions present at the injection site was evaluated daily by caliper measurement. External lesion area was then calculated as the product of the two major lesion diameters. The mean size (cm^2) of the lesions present at the injection site is shown.
To determine whether HIV-PI could inhibit the growth of a malignant angiogenic tumour, nude mice were inoculated with the EA-hy 926 cell line. This cell line is derived from a hybrid between H-UVEC and human lung adeno-carcinoma cells (Edgell et al, PNAS 1983), retains most of the endothelial cell markers and is used as an angiogenic tumour model (Albini et al, Nat Med 1996; Albini et al, PNAS 1995; Cai et al, Lab Invest 1999). HIV-PI were administered to nude mice starting 2 days prior to tumour cell inoculation. […] Similarly, the external tumour area was reduced in mice treated with both HIV-PI (P<0.05), reaching the size of the negative controls (Table 7). […] Inhibition of tumour growth was also observed in the absence of drug pre-treatment (FIG. 25). […]

[7] = system: bFGF; assay: bFGF production by KS cells (ELISA); assay type: cell-based, human; conditions: 0.1, 1 and 10 μM; 5 days + 24 hours
Procedure: After 24 hours of incubation, the supernatants of the cultures were tested by ELISA (R & D Systems, Minneapolis, Minn., USA) to determine the quantity of IL-6 present in the medium. The quantity of IL-6 is expressed in pg/ml of supernatant. The same tests were carried out for bFGF, VEGF, IL-1α and IL-1β by means of commercial ELISA kits.
KS cells secrete cytokines with an inflammatory, oedemigenic, angiogenic and proliferative activity with autocrine and paracrine effects (Ensoli and Stürzl, 1998). These factors mediate all the processes required for KS-like lesions formation (angiogenesis, cellular proliferation and invasion, inflammatory Infiltration, oedema) and vascular permeability and oedema induced by KS cells in nude mice. […] The quantity of bFGF, VEGF, IL-1 and IL-6 was dosed with immuno-enzymatic trials in the supernatants of the KS cells after 24 hours of culture in the absence of serum and in the continuous presence of the two HIV-PI (ELISA). […] Furthermore IL-6 plays a key role in the multicentric Cstleman's diseases and in the growth of lymphomas (Tosato et al., 1993; Peterson and Frizzera, 1993; Asou et al., 1998; Ramsay et al., 1994), another type of tumour whose incidence is reduced in patients treated with HIV-PI (International Collaboration on HIV and Cancer 2000).

[8] = system: KS cells; assay: KS cell proliferation (trypan blue dye exclusion); assay type: cell-based, human; conditions: 7 days

| SMILES | proliferation [1] | invasive capacity in response to bFGF [2] | survival of macrovascular endothelial cells [3] | basal or bFGF-induced proliferation (number of cells) [3] | invasion in response to bFGF [4] | invasion induced by bFGF [5] | regression of tumour angiogenic lesions (lesion size) [6] | production of bFGF by KS cells [7] | KS cell proliferation (viable cells, trypan blue) [8] |
| --- | --- | --- | --- | --- | --- | --- | --- | --- | --- |
| CC(C)(C)NC(=O)[C@@H]1CN(Cc2cccnc2)CCN1C[C@@H](O)C[C@@H](Cc1ccccc1)C(=O)N[C@H]1c2ccccc2C[C@H]1O [Indinavir, indinavir] | do not interfere | inhibit | no effect | no effect | inhibit | block | promote the regression | reduced | no effect |
| CC(C)(C)NC(=O)[C@@H]1C[C@@H]2CCCC[C@@H]2CN1C[C@@H](O)[C@H](Cc1ccccc1)NC(=O)[C@H](CC(N)=O)NC(=O)c1ccc2ccccc2n1 [Saquinavir, saquinavir] | do not interfere | inhibit | no effect | no effect | inhibit | block | promote the regression | reduced | no effect |

— patent US20060088545A1, “Use of inhibitors of the protease of the human immunodeficiency virus (hiv) to block cell migration and/or invasion, tissue infiltration and oedema for the therary of diseases associated therewith” (priority 2001, published 2006)
